Reference: US9481676B2, “Azepino[4,5-B]indoles and methods of use” (Medivation Technologies, Inc., priority 2008, dated 2016)

Assays:
[1] = target: T1, human recombinant serotonin (5-Hydroxytryptamine) 5-HT2C receptor (Homo sapiens, UniProt P28335); experiment: Serotonin 5-HT2C radioligand binding ([3H]Mesulergine); conditions: compound at 1 μM; read-out: Serotonin (1 μM) 5-HT2C, percent inhibition of specific binding
T1 construct: expressed in transfected cells; host or cells: CHO-K1 cells
T1 sequence (P28335 33-458): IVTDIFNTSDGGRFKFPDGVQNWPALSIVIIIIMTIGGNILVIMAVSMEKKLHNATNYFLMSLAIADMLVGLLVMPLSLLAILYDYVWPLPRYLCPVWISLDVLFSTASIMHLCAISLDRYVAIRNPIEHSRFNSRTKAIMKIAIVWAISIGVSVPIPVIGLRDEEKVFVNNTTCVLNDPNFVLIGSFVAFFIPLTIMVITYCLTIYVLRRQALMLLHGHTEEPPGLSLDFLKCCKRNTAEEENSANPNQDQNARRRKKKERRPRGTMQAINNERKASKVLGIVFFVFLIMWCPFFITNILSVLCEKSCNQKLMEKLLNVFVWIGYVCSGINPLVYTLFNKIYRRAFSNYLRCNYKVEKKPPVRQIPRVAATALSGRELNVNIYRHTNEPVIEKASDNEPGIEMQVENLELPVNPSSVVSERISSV
Summary of the method: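 Membranes from CHO-K1 cells expressing human 5-HT2C, incubated with 1 nM [3H]mesulergine for 60 min at 25 °C in 50 mM Tris-HCl pH 7.4 with ascorbic acid and pargyline.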

[2] = target: T2, human recombinant histamine H2 receptor (Homo sapiens, UniProt P25021); experiment: Histamine H2 radioligand binding ([125I]Aminopotentidine); conditions: compound at 1 μM; read-out: Histamine Binding (1 μM) H2, percent inhibition of specific binding
T2 construct: expressed in transfected cells; host or cells: CHO-K1 cells
T2 sequence (P25021 whole entry): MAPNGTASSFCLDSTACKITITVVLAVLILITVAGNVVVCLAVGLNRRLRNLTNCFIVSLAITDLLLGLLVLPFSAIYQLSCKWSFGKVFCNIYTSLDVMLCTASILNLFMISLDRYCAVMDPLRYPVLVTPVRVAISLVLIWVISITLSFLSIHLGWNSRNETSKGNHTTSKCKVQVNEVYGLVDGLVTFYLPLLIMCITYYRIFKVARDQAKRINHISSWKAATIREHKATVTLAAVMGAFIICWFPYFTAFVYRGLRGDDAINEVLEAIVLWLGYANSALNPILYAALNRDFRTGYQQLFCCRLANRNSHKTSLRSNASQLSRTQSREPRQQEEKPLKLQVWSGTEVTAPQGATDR
Summary of the method: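 Membranes from CHO-K1 cells expressing recombinant human H2 receptor, in 50 mM phosphate buffer pH 7.4, incubated with 0.1 nM [125I]aminopotentidine for 120 min at 25 °C; nonspecific binding defined with 3 μM tiotidine.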

[3] = target: T3, human recombinant dopamine D2L receptor (Homo sapiens, UniProt P14416); experiment: Dopamine D2L radioligand binding ([3H]Spiperone); conditions: compound at 1 μM; read-out: Dopamine (1 μM) D2L, percent inhibition of specific binding
T3 construct: expressed in transfected cells; host or cells: CHO cells
T3 sequence (P14416 whole entry): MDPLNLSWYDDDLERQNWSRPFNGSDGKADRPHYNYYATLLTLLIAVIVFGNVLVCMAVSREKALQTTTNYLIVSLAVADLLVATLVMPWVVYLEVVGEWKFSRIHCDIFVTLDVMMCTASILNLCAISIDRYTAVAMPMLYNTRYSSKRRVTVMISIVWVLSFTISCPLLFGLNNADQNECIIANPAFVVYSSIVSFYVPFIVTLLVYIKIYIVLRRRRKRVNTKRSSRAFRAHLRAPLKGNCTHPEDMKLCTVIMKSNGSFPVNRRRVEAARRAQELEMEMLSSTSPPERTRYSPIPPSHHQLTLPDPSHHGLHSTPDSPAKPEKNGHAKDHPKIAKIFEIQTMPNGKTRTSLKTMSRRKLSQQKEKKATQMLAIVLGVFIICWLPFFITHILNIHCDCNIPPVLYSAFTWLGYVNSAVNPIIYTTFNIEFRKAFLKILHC
Summary of the method: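 Human recombinant D2L receptor from CHO cells, in Tris-HCl buffer pH 7.4 with ascorbic acid, BSA and 150 mM NaCl; compounds at 1 μM or lower (1% DMSO) incubated with 0.16 nM [3H]spiperone, 120 min, 25° C. Nonspecific binding by 10 μM haloperidol; filter counting; % inhibition of specific binding.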

[4] = target: T4, human recombinant histamine H1 receptor (Homo sapiens, UniProt P35367); experiment: Histamine H1 radioligand binding ([3H]Pyrilamine); conditions: compound at 1 μM; read-out: Histamine Binding (1 μM) H1, percent inhibition of specific binding
T4 construct: expressed in transfected cells; host or cells: CHO cells
T4 sequence (P35367 whole entry): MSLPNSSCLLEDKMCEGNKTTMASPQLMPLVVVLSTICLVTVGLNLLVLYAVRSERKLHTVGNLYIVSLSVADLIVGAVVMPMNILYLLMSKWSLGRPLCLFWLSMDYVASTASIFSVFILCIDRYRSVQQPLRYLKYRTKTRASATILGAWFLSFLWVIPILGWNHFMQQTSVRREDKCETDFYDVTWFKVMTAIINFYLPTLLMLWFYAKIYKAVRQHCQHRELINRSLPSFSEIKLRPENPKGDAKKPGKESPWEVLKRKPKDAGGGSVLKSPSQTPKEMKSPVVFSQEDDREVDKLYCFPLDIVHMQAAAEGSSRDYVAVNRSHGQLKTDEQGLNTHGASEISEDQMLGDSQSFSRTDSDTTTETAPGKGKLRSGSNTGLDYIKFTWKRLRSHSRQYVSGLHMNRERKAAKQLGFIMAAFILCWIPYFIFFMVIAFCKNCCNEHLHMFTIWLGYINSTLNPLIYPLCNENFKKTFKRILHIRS
Summary of the method: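 Membranes from CHO cells expressing the receptor were incubated with compound and 1.2 nM [3H]pyrilamine for 180 min at 25 °C in 50 mM Tris-HCl pH 7.4 with MgCl2, NaCl and sucrose; 1 μM pyrilamine defined non-specific binding. Filter-bound radioactivity was counted.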

## Cc1ccc2c(c1)c1c(n2CC(=O)N(C)C2CCCCC2)CCN(C)CC1 [Compound No. 232, N-cyclohexyl-2-(3,9-dimethyl-2,3,4,5-tetrahydroazepino[4,5-b]indol-6(1H)-yl)-N-methylacetamide]
[1]
  inhibition at 1 µM: 93%
[2]
  inhibition at 1 µM: 22%
[3]
  inhibition at 1 µM: 8%
[4]
  inhibition at 1 µM: 95%

## Cc1ccc2c(c1)c1c(n2/C=C/c2ccccc2F)CCN(C)CC1 [Compound No. 233, (E)-6-(2-fluorostyryl)-3,9-dimethyl-1,2,3,4,5,6-hexahydroazepino[4,5-b]indole]
[1]
  inhibition at 1 µM: 100%
[2]
  inhibition at 1 µM: 94%
[3]
  inhibition at 1 µM: 73%
[4]
  inhibition at 1 µM: 98%

## CN1CCc2c(n(/C=C/c3ccc(F)cc3)c3ccc(Cl)cc23)CC1 [Compound No. 234, (E)-9-chloro-6-(4-fluorostyryl)-3-methyl-1,2,3,4,5,6-hexahydroazepino[4,5-b]indole]
[1]
  inhibition at 1 µM: 98%
[2]
  inhibition at 1 µM: 92%
[3]
  inhibition at 1 µM: 71%
[4]
  inhibition at 1 µM: 99%

## Cc1ccc2c(c1)c1c(n2/C=C/c2ccc(Cl)cc2)CCN(C)CC1 [Compound No. 235, (E)-6-(4-chlorostyryl)-3,9-dimethyl-1,2,3,4,5,6-hexahydroazepino[4,5-b]indole]
[1]
  inhibition at 1 µM: 98%
[2]
  inhibition at 1 µM: 94%
[3]
  inhibition at 1 µM: 42%
[4]
  inhibition at 1 µM: 97%

## CN1CCc2c(n(/C=C/c3ccc(F)c(F)c3)c3ccc(Cl)cc23)CC1 [Compound No. 236, (E)-9-chloro-6-(3,4-difluorostyryl)-3-methyl-1,2,3,4,5,6-hexahydroazepino[4,5-b]indole]
[1]
  inhibition at 1 µM: 100%
[2]
  inhibition at 1 µM: 97%
[3]
  inhibition at 1 µM: 34%
[4]
  inhibition at 1 µM: 99%

## CN1CCc2c(n(CCc3ccccc3F)c3ccccc23)CC1 [Compound No. 237, 6-(2-fluorophenethyl)-3-methyl-1,2,3,4,5,6-hexahydroazepino[4,5-b]indole]
[1]
  inhibition at 1 µM: 100%
[2]
  inhibition at 1 µM: 81%
[3]
  inhibition at 1 µM: 50%
[4]
  inhibition at 1 µM: 96%

## C/C(=C\n1c2c(c3cc(C)ccc31)CCN(C)CC2)c1ccc(Cl)cc1Cl [Compound No. 238, (E)-6-(2-(2,4-dichlorophenyl)prop-1-enyl)-3,9-dimethyl-1,2,3,4,5,6-hexahydroazepino[4,5-b]indole]
[1]
  inhibition at 1 µM: 100%
[2]
  inhibition at 1 µM: 98%
[3]
  inhibition at 1 µM: 7%
[4]
  inhibition at 1 µM: 98%

## C/C(=C\n1c2c(c3cc(Cl)ccc31)CCN(C)CC2)c1ccc(Cl)cc1Cl [Compound No. 239, (E)-9-chloro-6-(2-(2,4-dichlorophenyl)prop-1-enyl)-3-methyl-1,2,3,4,5,6-hexahydroazepino[4,5-b]indole]
[1]
  inhibition at 1 µM: 97%
[2]
  inhibition at 1 µM: 89%
[3]
  inhibition at 1 µM: 9%
[4]
  inhibition at 1 µM: 91%

## CN1CCc2c(n(C#Cc3ccc(F)cc3)c3ccc(Cl)cc23)CC1 [Compound No. 281, 9-chloro-6-((4-fluorophenyl)ethynyl)-3-methyl-1,2,3,4,5,6-hexahydroazepino[4,5-b]indole]
[1]
  inhibition at 1 µM: 98%
[2]
  inhibition at 1 µM: 76%
[3]
  inhibition at 1 µM: 40%
[4]
  inhibition at 1 µM: 56%

## CN1CCc2c(n(C#Cc3ccc(Cl)cc3)c3ccc(Cl)cc23)CC1 [Compound No. 282, 9-chloro-6-((4-chlorophenyl)ethynyl)-3-methyl-1,2,3,4,5,6-hexahydroazepino[4,5-b]indole]
[1]
  inhibition at 1 µM: 103%
[2]
  inhibition at 1 µM: 87%
[3]
  inhibition at 1 µM: 1%
[4]
  inhibition at 1 µM: 99%

## Cc1ccc2c(c1)c1c(n2C(=O)Cc2ccc(F)cc2)CCN(C)CC1 [Compound No. 285, 1-(3,9-dimethyl-2,3,4,5-tetrahydroazepino[4,5-b]indol-6(1H)-yl)-2-(4-fluorophenyl) ethanone]
[1]
  inhibition at 1 µM: 99%
[2]
  inhibition at 1 µM: 74%
[3]
  inhibition at 1 µM: 21%
[4]
  inhibition at 1 µM: 68%
